Drawing on ChEMBL document CHEMBL1150772, “Chemometric and chemoinformatic analyses of anabolic and androgenic activities of testosterone and dihydrotestosterone analogues” (Bioorg Med Chem, 2008), this text covers logP for 43 compounds.

A short description of this data set: physchem. The note with it: octanol/water.

Description: Lipophilicity, log P of the compound

Compound `C[C@]12CC[C@@H](O)C[C@@H]1CC[C@@H]1[C@@H]2CC[C@]2(C)[C@@H](O)CC[C@@H]12` [ANDROSTANDIOL] displayed a lipophilicity (logP) of 5.49. As for `CC(=O)O[C@H]1CC[C@H]2[C@@H]3CCC4=CC(=O)CC[C@]4(C)[C@H]3CC[C@]12C`, the log partition coefficient (logP) was 4.2. `C[C@@H]1CC2=CC(=O)CC[C@]2(C)[C@H]2CC[C@]3(C)[C@@H](O)CC[C@H]3[C@H]12`: the log partition coefficient (logP) was found to be 4.17.

As for `C[C@]12CCC(=O)C=C1CC[C@@H]1[C@@H]2CC[C@@]2(C)[C@H]1CC[C@]2(C)O` [METHYLTESTOSTERONE], the logP came to 3.91. The compound `C[C@@H]1C[C@]2(C)C3=CC[C@@]4(C)C(CC[C@]4(C)O)[C@@H]3CC[C@H]2CC1=O` (stereo partly drawn) came in with a logP of 4.14.

Regarding `C[C@H]1C/C(=N\O)C[C@@H]2CC[C@@H]3[C@H](CC[C@@]4(C)[C@H]3CC[C@]4(C)O)[C@]21C`, the logP was 5. Consider `COC1(O[C@H]2CC[C@H]3[C@@H]4CC[C@H]5CC(=O)CC[C@]5(C)[C@H]4CC[C@]23C)CCCC1`, for which the logP is 5.68. `C[C@]12CC[C@H]3[C@@H](CCC4=CC(=O)CC[C@@]43C)[C@@H]1CC[C@@H]2O[Si](C)(C)C`: the logP is 3.95.

Compound `C[C@H]1C[C@@H]2[C@H](CC[C@@]3(C)[C@H]2CC[C@]3(C)O)[C@@]2(C)CCC(=O)C=C12` showed a logP of 4.24.

Consider `CC(=O)O[C@H]1CC[C@H]2[C@@H]3CCC4=C(Cl)C(=O)CC[C@]4(C)[C@H]3CC[C@]12C`, for which the logP turned out to be 3.87. With `C[C@]12CC[C@H]3[C@@H](C[C@@H](F)C4=CC(=O)CC[C@@]43C)[C@@H]1CC[C@@H]2O`, the lipophilicity (logP) turned out to be 3.53. Take `CCOC1(O[C@H]2CC[C@H]3[C@@H]4CC[C@H]5CC(=O)CC[C@]5(C)[C@H]4CC[C@]23C)CCCC1`: the logP turned out to be 6.02.

With `C[C@]12CCC(=O)C[C@@H]1CC[C@H]1C3=CC[C@H](O)[C@@]3(C)CC[C@@H]12`, the log partition coefficient (logP) is 3.5.

`C[C@]12CCC(=O)C=C1CC[C@@H]1[C@@H]2C(=O)C[C@]2(C)C(=O)CC[C@@H]12` [ADRENOTERONE] showed a logP of 3.75. For `C[C@]12C[C@@H]3[C@H](C[C@@H]1CC[C@@H]1[C@@H]2CC[C@@]2(C)[C@H]1CC[C@]2(C)O)C3(F)F`, the logP was found to be 4.72. With `C[C@@H]1C[C@@H]2[C@H](CC[C@]3(C)[C@@H](O)CC[C@@H]23)[C@@]2(C)CCC(=O)C[C@H]12`, the logP was determined as 4.26. `C[C@@H]1C[C@@]2(C)[C@@H](CC[C@@H]3[C@@H]2CC[C@]2(C)[C@@H](O)CC[C@@H]32)CC1=O` [DROMOSTANOLONE] registered a logP of 4.5. Take `CC(=O)O[C@H]1CC[C@H]2[C@@H]3CC[C@H]4C[C@H]5[C@@H](C[C@]4(C)[C@H]3CC[C@]12C)C5(F)F`: the logP turned out to be 4.77.

`C[C@]12C[C@@H]3O[C@@H]3C[C@@H]1CC[C@@H]1[C@@H]2CC[C@]2(C)[C@@H](O)CC[C@@H]12`: the logP was 4.5. On to `CC(=O)O[C@H]1CC[C@H]2[C@@H]3CCC4=C(O)C(=O)CC[C@]4(C)[C@H]3CC[C@]12C`, for which the logP amounted to 3.06. `C[C@]12C[C@H]3O[C@H]3C[C@@H]1CC[C@@H]1[C@@H]2CC[C@]2(C)[C@@H](O)CC[C@@H]12` gave a logP of 3.5.

On to `C[C@]12CC[C@H]3[C@@H](CCC4=CC(=O)CC[C@@]43C)[C@@H]1CC[C@@H]2OC(=O)C(Cl)Cl`, for which the logP was determined as 5.04. `C[C@H]1C[C@@H]2[C@H](CC[C@]3(C)[C@@H](O)CC[C@@H]23)[C@@]2(C)CCC(=O)C[C@H]12` came in with a logP of 4.26.

As to `CC1=C[C@@]2(C)C(=CC1=O)C=C[C@@H]1[C@@H]2CC[C@@]2(C)[C@H]1CC[C@]2(C)O`, the lipophilicity (logP) was 4.01. The value for `C[C@H]1C[C@@H]2[C@H](CC[C@@]3(C)[C@H]2CC[C@]3(C)O)[C@@]2(C)CCC(=O)C[C@H]12` was 4.34; that for `C[C@]12CC[C@H]3[C@@H](CCC4=CC(=O)CC[C@@]43C)[C@@H]1CC[C@@H]2OC(=O)C(F)Cl` (stereo partly drawn) was 4.7; that for `C[C@]12CCC(=O)C=C1CC[C@@H]1[C@@H]2[C@@H](O)C[C@@]2(C)[C@H]1CC[C@]2(C)O` was 2.93. Take `CN(C)CCN/C=C1\C[C@@]2(C)[C@@H](CC[C@@H]3[C@@H]2CC[C@@]2(C)[C@H]3CC[C@]2(C)O)CC1=O`: the lipophilicity (logP) was found to be 2.53. The value for `CC(=O)O[C@H]1CC[C@H]2[C@@H]3CCC4=C(Cl)C(=O)CC[C@]4(C)[C@H]3[C@@H](O)C[C@]12C` was 2.88; that for `CC(=O)O[C@H]1CC[C@H]2[C@@H]3CC[C@H]4C[C@@H]5[C@H](C[C@]4(C)[C@H]3CC[C@]12C)C5(F)F` was 4.77; that for `C[C@]12CC[C@H]3[C@@H](CCC4=CC(=O)CC[C@@]43C)[C@@H]1CC[C@@H]2O` [TESTOSTERONE] was 2.53. For the compound `CCCO[C@@]1(C)CC[C@H]2[C@@H]3CC[C@H]4CC(=O)[C@H](C)C[C@]4(C)[C@H]3CC[C@@]21C`, the logP was determined as 5.66.

On to `C[C@]12C/C(=C\N)C(=O)C[C@@H]1CC[C@@H]1[C@@H]2CC[C@@]2(C)[C@H]1CC[C@]2(C)O`, for which the logP was found to be 2.8. The value for `C[C@]12CC[C@H]3[C@@H](CCC4=CC(=O)[C@H](F)C[C@@]43C)[C@@H]1CC[C@@H]2O` was 3.86; that for `C[C@]12C[C@H](O)CC[C@@H]1CC[C@@H]1[C@@H]2CC[C@@]2(C)[C@H]1CC[C@]2(C)O` was 3.8; that for `C[C@@H]1CC2=CC(=O)CC[C@]2(C)[C@H]2CC[C@@]3(C)[C@@H](CC[C@]3(C)O)[C@H]12` [BOLASTERONE] was 4.24. The value for `C[C@]12C[C@@H](F)C(=O)C[C@@H]1CC[C@@H]1[C@@H]2CC[C@]2(C)[C@@H](O)CC[C@@H]12` was 3.96; that for `C[C@]12CCC(=O)C[C@@H]1CC[C@@H]1[C@@H]2CC[C@@]2(C)[C@H]1CC[C@]2(C)O` [MESTANOLONE] was 4.01; that for `C[C@@H]1CC2=CC(=O)CC[C@]2(C)[C@H]2CC[C@]3(C)C(=O)CC[C@H]3[C@H]12` was 4.69. Take `C[C@]12C[C@H](O)[C@H]3[C@@H](CCC4=CC(=O)CC[C@@]43C)[C@@H]1CC[C@@H]2O`: the logP came to 2.85. In turn, `COC[C@@H]1C[C@@]2(C)[C@@H](CC[C@@H]3[C@@H]2CC[C@]2(C)[C@@H](O)CC[C@@H]32)CC1=O` gave a logP of 3.77.

`CCCO[C@@]1(C)CC[C@H]2[C@@H]3C[C@H](C)[C@H]4CC(=O)[C@H](C)C[C@]4(C)[C@H]3CC[C@@]21C` displayed a lipophilicity (logP) of 5.99. In turn, `C[C@]12CC/C(=N/NC(N)=O)C[C@@H]1CC[C@@H]1[C@@H]2CC[C@]2(C)[C@@H](O)CC[C@@H]12` had a log partition coefficient (logP) of 3.45.

In general, logP refers to a log measure of how a compound divides between an organic and an aqueous phase. The low end stands for a more hydrophilic compound, the high end for a more lipophilic compound.
